Several values for one entry are separate records, joined by “and”; a condition that tells them apart may be missing. Equal entries are not always repeated. Inconclusive results and toxic doses are left out. How the source made its calls: active means survival T/C of 150% or more; inactive means T/C below 125% in these data.
Test system: P388 leukemia ip, CD2F1 mice, survival T/C
Test: NCI In Vivo Anticancer Drug Screen. Data for tumor model P388 Leukemia (intraperitoneal) in CD2F1 (CDF1) mice
Details: endpoint: median survival time, higher = longer survival
How it was run: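 Mice carrying the transplanted tumor received test compound or vehicle. Survival was recorded in each group, and the value is the treated-group measurement divided by that of the vehicle-treated control group.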

[1] = dose: 60.0 mg/kg/injection, schedule: Q01DX005 (ip), vehicle: saline with Tween-80
[2] = dose: 50.0 mg/kg/injection, schedule: Q01DX009 (ip), vehicle: saline with Tween-80
[3] = dose: 100.0 mg/kg/injection, schedule: Q01DX009 (ip), vehicle: saline with Tween-80
[4] = dose: 200.0 mg/kg/injection, schedule: Q01DX009 (ip), vehicle: saline with Tween-80
[5] = dose: 50.0 mg/kg/injection, schedule: Q01DX005 (ip), vehicle: Klucel (hydroxypropylcellulose) (HPC)
[6] = dose: 12.5 mg/kg/injection, schedule: Q01DX005 (ip), vehicle: Klucel (hydroxypropylcellulose) (HPC)
[7] = dose: 25.0 mg/kg/injection, schedule: Q01DX005 (ip), vehicle: Klucel (hydroxypropylcellulose) (HPC)

Measured: T/C

CC1(C)CC2(C)OC(=O)c3ccccc3N2C(=S)N1 (centres undefined)
inactive: dose: 15.0 mg/kg/injection, schedule: Q01DX005 (ip), vehicle: saline with Tween-80 94 % of control | dose: 30.0 mg/kg/injection, schedule: Q01DX005 (ip), vehicle: saline with Tween-80 95 % of control | [1] 90 % of control and 96 % of control

CC(C)(C)c1ccc(C(=O)n2c(=S)oc3ccc(Cl)cc32)cc1
inactive: [1] 96 % of control | dose: 120.0 mg/kg/injection, schedule: Q01DX005 (ip), vehicle: saline with Tween-80 95 % of control | dose: 240.0 mg/kg/injection, schedule: Q01DX005 (ip), vehicle: saline with Tween-80 94 % of control

Cc1ccc(S(=O)(=O)OC(=C(F)F)[Si](C)(C)C)cc1
inactive: [2] 102 % of control | [3] 94 % of control

OC1COCCC(O)(CNCc2ccccc2)C1O (centres undefined)
inactive: dose: 50.0 mg/kg/injection, schedule: Q01DX009 (ip), vehicle: saline 98 % of control | dose: 100.0 mg/kg/injection, schedule: Q01DX009 (ip), vehicle: saline 107 % of control

O=C(CNC(=O)Nc1ccc(Cl)c(Cl)c1)N/N=C/c1ccc2c(c1)OCO2
inactive: [2] 91 % of control | [3] 90 % of control | [4] 89 % of control

CC(=O)/C=C/c1ccc(O)cc1
inactive: [2] 110 % of control | [3] 98 % of control | dose: 100.0 mg/kg/injection, schedule: Q04DX003 (ip), vehicle: saline with Tween-80 105 % of control | [4] 100 % of control | dose: 200.0 mg/kg/injection, schedule: Q04DX003 (ip), vehicle: saline with Tween-80 113 % of control | dose: 400.0 mg/kg/injection, schedule: Q04DX003 (ip), vehicle: saline with Tween-80 105 % of control

C=C(CO)C(=O)OC1CC(=C)C2CC(O)C(=C)C2C2OC(=O)C(=C)C12 (centres undefined)
inactive: dose: 100.0 mg/kg/injection, schedule: Q01DX001 (ip), vehicle: saline 113 % of control | dose: 200.0 mg/kg/injection, schedule: Q01DX001 (ip), vehicle: saline 99 % of control | dose: 400.0 mg/kg/injection, schedule: Q01DX001 (ip), vehicle: saline 104 % of control

CC(=O)c1ccc(C)cc1C
inactive: dose: 25.0 mg/kg/injection, schedule: Q01DX009 (ip), vehicle: saline with Tween-80 98 % of control | [2] 98 % of control | [3] 104 % of control and 110 % of control | [4] 118 % of control

O=NNc1cnc2ccccc2n1
inactive: dose: 3.12 mg/kg/injection, schedule: Q01DX009 (ip), vehicle: water 106 % of control | dose: 6.25 mg/kg/injection, schedule: Q01DX009 (ip), vehicle: water 103 % of control | dose: 12.5 mg/kg/injection, schedule: Q01DX009 (ip), vehicle: water 106 % of control and 112 % of control | dose: 25.0 mg/kg/injection, schedule: Q01DX009 (ip), vehicle: water 120 % of control and 121 % of control | dose: 50.0 mg/kg/injection, schedule: Q01DX009 (ip), vehicle: water 113 % of control and 87 % of control

CC(C)(C)N1C(=O)NCS1(=O)=O
inactive: [5] 100 % of control | dose: 100.0 mg/kg/injection, schedule: Q01DX005 (ip), vehicle: Klucel (hydroxypropylcellulose) (HPC) 100 % of control | dose: 200.0 mg/kg/injection, schedule: Q01DX005 (ip), vehicle: Klucel (hydroxypropylcellulose) (HPC) 115 % of control

CC(NNC(=S)N1CCN(c2ccccn2)CC1)c1ccccn1 (centres undefined)
inactive: [6] 99 % of control | [7] 101 % of control | [5] 109 % of control and 95 % of control

CCN1CC2(COC)C(O)CC(OC)C34C5CC6(O)C(O)C5C(O)(C(O)C6OC)C(C(OC)C23)C14 (centres undefined)
inactive: dose: 25.0 mg/kg/injection, schedule: Q01DX005 (ip), vehicle: saline 114 % of control | dose: 50.0 mg/kg/injection, schedule: Q01DX005 (ip), vehicle: saline 102 % of control | dose: 100.0 mg/kg/injection, schedule: Q01DX005 (ip), vehicle: saline 107 % of control | dose: 200.0 mg/kg/injection, schedule: Q01DX005 (ip), vehicle: saline 104 % of control

COc1ccc(/C=N/Nc2cc(C)nc3ccc(F)cc23)c2ccccc12
inactive: [6] 97 % of control | [7] 98 % of control | [5] 99 % of control

Source: PubChem BioAssay AID330 (DTP/NCI, 2004)
